Measurements as given in ChEMBL document CHEMBL5335778, “Bench-to-bedside: Innovation of small molecule anti-SARS-CoV-2 drugs in China” (Eur J Med Chem, 2023).

Assays:
SARS-CoV-2 [1] = assay: Antiviral activity against SARS-CoV-2 Omicron assessed as reduction of viral growth; type: functional, organism-based; conditions: Severe acute respiratory syndrome coronavirus 2, Omicron
[2] = molecular target: T1, Human immunodeficiency virus type 1 reverse transcriptase (Human immunodeficiency virus 1, UniProt Q72547); assay: Inhibition of HIV-1 reverse transcriptase associated RNA-dependent DNA polymerase
SARS-CoV-2 [3] = assay: Antiviral activity against SARS-COV-2 infected in African green monkey Vero E6 cells assessed as reduction in viral growth; type: functional, organism-based; conditions: Severe acute respiratory syndrome coronavirus 2, Vero C1008
[4] = Cytotoxicity against African green monkey Vero E6 cells assessed as cell growth inhibition measured after 48 hrs by CCK-8 assay; type: toxicity, cell-based, Vero C1008; conditions: chlorocebus sabaeus
SARS-CoV-2 [5] = assay: Antiviral activity against SARS-CoV-2 B.1.1.7 Alpha infected in human Calu-3 cells assessed as inhibition of viral infection preincubated for 1 hr followed by viral infection measured after 48 hrs by Hoechst 33342 staining based analysis; type: functional, organism-based; conditions: Severe acute respiratory syndrome coronavirus 2, B.1.1.7, Calu-3
SARS-CoV-2 [6] = assay: Antiviral activity against SARS-CoV-2 […] infected in human 293TA cells assessed as reduction of viral growth measured after 48 hrs by luciferase assay; type: functional, organism-based; conditions: Severe acute respiratory syndrome coronavirus 2, 293TA
SARS-CoV-2 [7] = assay: Antiviral activity against SARS-CoV-2 […] B.1.617.2 delta infected in human 293TA cells assessed as reduction of viral growth measured after 48 hrs by luciferase assay; type: functional, organism-based; conditions: Severe acute respiratory syndrome coronavirus 2, 293TA
[8] = tested on: Human immunodeficiency virus 1; assay: Antiviral activity against HIV-1 3B infected in human MT4 cells assessed as reduction in virus-induced cytopathic effect incubated for 5 days by MTT assay; type: functional, organism-based; conditions: Human immunodeficiency virus 1, 3B, MT4, 120 h
[9] = Cytotoxicity against human MT4 cells assessed as reduction in cell viability treated for 5 days by MTT assay; type: toxicity, cell-based; conditions: time 5 day
[10] = Oral bioavailability in rat; type: ADME, organism-based; conditions: in vivo
SARS-CoV-2 [11] = assay: Antiviral activity against luciferase-expressing pseudovirus encoding SARS-CoV-2 Omicron expressing S protein infected in human 293T/ACE2 cells assessed as reduction of viral growth measured after 48 hrs by luciferase assay; type: functional, organism-based; conditions: Severe acute respiratory syndrome coronavirus 2, 293T/ACE2, 48 h
SARS-CoV-2 [12] = assay: Antiviral activity against SARS-CoV-2 infected in human A549-ACE2 cells assessed as reduction in viral replication; type: functional, organism-based; conditions: Severe acute respiratory syndrome coronavirus 2, A549-ACE2
SARS-CoV-2 [13] = assay: Antiviral activity against SARS-CoV-2 infected in African green monkey Vero E6 cells assessed as reduction in cell growth; type: functional, organism-based; conditions: Severe acute respiratory syndrome coronavirus 2, Vero C1008
[14] = molecular target: Human immunodeficiency virus type 1 protease (Human immunodeficiency virus 1, UniProt Q72874); assay: Inhibition of HIV-1 protease
SARS-CoV-2 [15] = assay: Antiviral activity against SARS-CoV-2 infected in African green monkey Vero E6 cells assessed as reduction in infection measured after 24 hrs by Plaque assay; type: functional, organism-based; conditions: Severe acute respiratory syndrome coronavirus 2, Vero C1008, 24 h
[16] = molecular target: T1, Human immunodeficiency virus type 1 reverse transcriptase; assay: Inhibition of wild type HIV-1 reverse transcriptase
[17] = tested on: Human immunodeficiency virus 2; assay: Antiviral activity against HIV-2 D194 infected in PBMC assessed as inhibition of viral growth; type: functional, organism-based; conditions: Human immunodeficiency virus 2, D194, PBMC
[18] = molecular target: Hepatitis C virus NS5B RNA-dependent RNA polymerase (Hepatitis C virus, UniProt Q8JXU8); assay: Inhibition of Hepatitis C virus NS5B polymerase; parameters: species or system Hepacivirus hominis
Hepatitis C virus NS5B RNA-dependent RNA polymerase, sequence (Q8JXU8 whole entry): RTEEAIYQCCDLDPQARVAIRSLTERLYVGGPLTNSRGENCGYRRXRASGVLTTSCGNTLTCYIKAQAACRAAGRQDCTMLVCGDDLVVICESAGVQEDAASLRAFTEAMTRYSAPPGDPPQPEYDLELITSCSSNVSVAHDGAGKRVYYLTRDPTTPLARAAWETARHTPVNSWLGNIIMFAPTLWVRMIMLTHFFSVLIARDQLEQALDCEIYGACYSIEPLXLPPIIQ

[2H][C@](C(=O)N[C@@H](C)c1ccc(F)cc1)(c1cccnc1)N(C(=O)C(C)=O)c1ccc2c(c1)oc1ccccc12
EC50 (SARS-CoV-2 [1]): 33 nM

O=C(NCc1cccs1)[C@@H]1CN(C(=O)c2cccnc2)CCN1c1ccc(Cl)c(Cl)c1
EC50 (SARS-CoV-2 [1]): 33 nM

C[C@@]1(O)[C@H](O)[C@@H](CO)O[C@H]1n1ccc(N)nc1=O
IC50 [2]: 1050 nM

CC[C@H](C)[C@@H](C(=O)O[C@@H](CC(C)C)C(=O)N[C@@H](CC(C)C)C(=O)N[C@@H](C)/C=C/C(=O)N1C(=O)C=C(OC)[C@@H]1C)N(C)C [GALLINAMIDE A]
EC50 (SARS-CoV-2 [3]): 28 nM
CC50 at 48 h [4]: 88 nM

O=C[C@H](C[C@@H]1CCNC1=O)NC(=O)[C@H](CC1CCCCC1)NC(=O)c1cc2ccccc2[nH]1
EC50 (SARS-CoV-2 [5]): 390 nM
EC50 (SARS-CoV-2 [6]): 280 nM
EC50 (SARS-CoV-2 [7]): 270 nM
EC50 (SARS-CoV-2 [1]): 33 nM

[2H]c1cc([C@]2(C#N)O[C@H](COC(=O)C(C)C)[C@@H](OC(=O)C(C)C)[C@H]2OC(=O)C(C)C)n2ncnc(N)c12
EC50 [8]: 350 nM
CC50 at 120 h [9]: 280000 nM
bioavailability [10]: 49.9%

CC[C@H](C)[C@H]1NC(=O)[C@@H](NC(=O)[C@@H](CC(C)C)N(C)C(=O)[C@@H]2CCCN2C(=O)C(C)=O)[C@@H](C)OC(=O)[C@H](Cc2ccc(OC)cc2)N(C)C(=O)[C@@H]2CCCN2C(=O)[C@H](CC(C)C)NC(=O)[C@@H](C)C(=O)[C@H](C(C)C)OC(=O)C[C@@H]1O [PLITIDEPSIN]
EC50 (SARS-CoV-2 [11]): 350 nM
EC50 (SARS-CoV-2 [12]): 100 nM
EC50 (SARS-CoV-2 [13]): 0.7 nM

[N-]=[N+]=N[C@]1(CO)O[C@@H](n2ccc(N)nc2=O)[C@H](O)[C@@H]1O [4'-AZIDOCYTIDINE]
IC50 [14]: 1280 nM

Nc1ncnc2c1ccn2[C@@H]1O[C@H](CO)[C@@H](O)[C@H]1O [TUBERCIDIN]
EC50 (SARS-CoV-2 [15]): 590 nM

[N-]=[N+]=N[C@]1(CO)O[C@@H](n2ccc(N)nc2=O)[C@@H](O)[C@@H]1O
EC50 [16]: 0.03 nM
EC50 [17]: 0.018 nM
IC50 [18]: 1280 nM
IC50 [14]: 171 nM

O=C[C@H](C[C@@H]1CCNC1=O)NC(=O)[C@H](Cc1ccccc1)NC(=O)c1cc2ccccc2[nH]1
EC50 (SARS-CoV-2 [1]): 33 nM

CC(C)(C)[C@H](NC(=O)C(F)(F)F)C(=O)N1C[C@H]2[C@@H]([C@H]1C(=O)N[C@H](C#N)C[C@@H]1CCNC1=O)C2(C)C
EC50 (SARS-CoV-2 [5]): 820 nM
EC50 (SARS-CoV-2 [6]): 490 nM
EC50 (SARS-CoV-2 [7]): 780 nM
EC50 (SARS-CoV-2 [1]): 33 nM

O=C1C=C(Nc2ccccc2C2CCNCC2)C2=NS(=O)(=O)c3cccc1c32
EC50 (SARS-CoV-2 [1]): 33 nM
